The record followed here is patent US20120129152A1, “Diagnostic method for the prediction of the development of and control over the effectiveness of treatment of cardiovascular illnesses” (priority 2010, published 2012).

Common to all, as to type: in vivo, human
Experiment [1] in a line: Hemodynamic indicators (tetrapolar rheography) of treated patient. To be noted: Example 1, after Valacyclovir with Nitrosorbidum and Corinfar.
The next experiment has as its system Epstein-Barr virus. Kind of experiment: IIF of patients' blood immunocytes: cells infected with Epstein-Barr virus. The protocol: (§1) The task set is addressed through a diagnostic method for the prediction of the development and control of the effectiveness of the treatment of cardiovascular, in which patient tissue samples are taken (immunocytes and erythrocytes from venous and capillary blood, smears and prints from atherosclerotic plaques after surgical intervention, and cells from urinary and salivary sediment), microdrugs are prepared, specific anti-viral immunoglobulins are processed (for types 1 and 2 herpes viruses, the cytomegalovirus, the herpes Zoster virus, the Epstein-Barr virus, the herpes 6 virus, or the combinations thereof), the number of cells infected by two or more viruses before the beginning of treatment, during treatment, and after treatment are determined with the application of anti-viral therapy, and the dynamic of the change in the number of infected cells and their interrelationships are established: if the number of cells infected by two or more viruses, among which cytomegalovirus must be found, exceeds 50±10% in patients with cardiovascular disease, a diagnostic conclusion of the threat of atherosclerosis complications such as myocardial infarction and stroke, as well as of complications such as arrhythmia, thrombic embolisms, severe left ventricular failure, repeated myocardial infarction, cardiogenic shock, and a high possibility of a fatal result; the method can also be used in patients with cardiovascular diseases after treatment through a method of a combination of traditional methods and the use of anti-viral drugs and a change is seen in the percentage of infected cells after treatment if the number of cells infected by two or more viruses decreases by more than 20±10% in repeat diagnostics, the treatment is considered successful, whereas if a decrease by 20±10% in the number of cells infected by cytomegalovirus and any other aforementioned virus in repeat diagnostics is not seen, a conclusion is drawn on the ineffectiveness of the therapy applied in that period and the need to change the antiviral therapy scheme.

Another experiment concerns cytomegalovirus. Kind of experiment: IIF of patients' blood immunocytes: cells infected with cytomegalovirus. The protocol: as §1
Experiment [2] in a line: Clinical condition of treated patient with ischemic heart disease.
Experiment [3] in a line: Free-radical acidization of lipids, serum indicators of treated patient. To be noted: Example 1, after Valacyclovir with Nitrosorbidum and Corinfar.
The nature of experiment [4]: Electrocardiogram indices of treated patient. Particulars: Example 1, after Valacyclovir with Nitrosorbidum and Corinfar.
The next experiment has as its system HSV-1. In words: IIF of patients' blood immunocytes: cells infected with herpes type 1 virus.
Description: […]

Experiment [5] is described as follows: Blood serum lipid complex (lipidogram) of treated patients.
Where [6] appears, read: Example 2, after Valacyclovir 3 courses of 7 days, before 50% of cells infected.

Regarding `CC(C)[C@H](N)C(=O)OCCOCn1cnc2c(=O)[nH]c(N)nc21` [Valacyclovir], the “capacity of the left ventricle” value in experiment [1] (before 2.02) came out at 2.29 W. Further, the energy loss in experiment [1] (before 15.96) is given as 10.37 conditional units. For the same compound, in experiment [1] (before 74.53), the specific peripheral resistance came out at 65.97 conditional units. In experiment [1] (before 126.5), the flow rate came out at 169.71 mL/s. In experiment [1] (before 2917.9), the “total peripheral vascular resistance” value is recorded as 2673.6 dyn s cm^−5. Besides, the “blood immunocytes infected with EBV (IIF)” value with Epstein-Barr virus (Example 1, after Valacyclovir with Nitrosorbidum and Corinfar, before 70% of cells infected) was determined as 50%; in the experiment on Epstein-Barr virus (setting [6]), 10%. Moreover, the “Epstein-Barr virus antigens in immunocytes, repeat IIF study” value in the experiment with Epstein-Barr virus (Example 4, two months after combination therapy Valacyclovir with immunoglobulin and Laferobion, before 50% of cells infected) is given as “did not discover antigens”. For the same compound, the “blood immunocytes infected with CMV (IIF)” value in the experiment with cytomegalovirus (Example 1, after Valacyclovir with Nitrosorbidum and Corinfar, before 60% of cells infected) came out at 20%. In addition, the “CMV in the blood immunocytes (IIF)” value in the experiment with cytomegalovirus (setting [6]) is reported as “not present”. For the same compound, the “immunocytes infected with cytomegalovirus (IIF)” value in the experiment on cytomegalovirus (Example 3, after Valacyclovir 5 courses of 7 days, before 50% of cells infected) amounted to 10%. Moreover, the “cytomegalovirus antigens in immunocytes, repeat IIF study” value with cytomegalovirus (Example 4, two months after combination therapy Valacyclovir with immunoglobulin and Laferobion, before 30% of cells infected) is reported as “did not discover antigens”. The “patient's condition” value in experiment [2] (Example 1, within seven weeks, Valacyclovir with Nitrosorbidum and Corinfar) was “improved significantly”. The “angina pain and shortness of breath” value in experiment [2] (Example 1, within seven weeks, Valacyclovir with Nitrosorbidum and Corinfar, nitroglycerine tablets not used) is “not present”. Further, the “lipidogram, peroxide acidization of lipids, electrocardiography and tetrapolar rheography indicators” value in experiment [2] (summary of the examples, standard treatment scheme combined with Valacyclovir) is “normalized”. The triethynoid conjugates in experiment [3] (before 0.23) is reported as 0.14 mcmol/ml. Moreover, the serum malondialdehyde in experiment [3] (before 0.50) was 0.31 mcmol/ml. The diethynoid conjugates in experiment [3] (before 1.332) was 0.70 mcmol/ml. The a-tocopherol content in experiment [3] (before 2.69) turned out to be 4.32 mcmol/ml. In experiment [3] (before 12.4), the glutathione reductase activity is 22.0 mcmol/l h. In experiment [4] (before 10.0), the “NST on the electrocardiogram” value is listed as 0. In addition, in experiment [4] (before 11.0), the “SST on the electrocardiogram” value worked out at 0. Moreover, the “T index on the electrocardiogram” value in experiment [4] (before 35.0) came to 0. Also, in the experiment with HSV-1 (Example 3, after Valacyclovir 5 courses of 7 days, before 70% of cells infected), the “immunocytes infected with HSV-1 (IIF)” value is recorded as 30%. In addition, in the experiment on HSV-1 (Example 4, two months after combination therapy Valacyclovir with immunoglobulin and Laferobion, before 60% of cells infected), the “herpes type 1 virus antigens in immunocytes, repeat IIF study” value is “did not discover antigens”. In experiment [5] (Example 1, patient one, after Valacyclovir 1.0 g three times a day with Nitrosorbidum and Corinfar, before 6.71), the “total cholesterol in blood serum” value stood at 3.26 mmol/L. Moreover, the cholesterol/HDL in experiment [5] (Example 1, after Valacyclovir with Nitrosorbidum and Corinfar, before 1.17) came out at 1.20 mmol/L. In experiment [5] (Example 1, after Valacyclovir with Nitrosorbidum and Corinfar, before 1.55), this compound yielded an LDL of 0.47 mmol/L. Besides, in experiment [5] (Example 1, after Valacyclovir with Nitrosorbidum and Corinfar, before 3.4), the “triglycerides in blood serum” value turned out to be 1.04 mmol/L. The same compound had a cholesterol/LDL in experiment [5] (Example 1, after Valacyclovir with Nitrosorbidum and Corinfar, before 3.99) of 3.68 mmol/L. In experiment [5] (Example 1, after Valacyclovir with Nitrosorbidum and Corinfar, before 4.74), this compound registered an atherogenesis index of 3.38. The “b-lipoproteins in blood serum” value in experiment [5] (Example 1, after Valacyclovir with Nitrosorbidum and Corinfar, before 770) came to 310 conditional units. The triglycerides in experiment [5] (Example 2, after Valacyclovir 1.0 g 3×/day for 3 courses of 7 days, before 1.55) stood at 1.3 mmol/L; in experiment [5] (Example 3, after Valacyclovir 1 g 3×/day for 5 courses of 7 days, before 2.55), 1.95 mmol/L; in experiment [5] (Example 4, after combination therapy Valacyclovir with immunoglobulin and Laferobion, before 1.4), 1.3 mmoles/1. Further, the total cholesterol was found to be 4.7 mmoles/1 in experiment [5] (Example 2, after Valacyclovir 1.0 g 3×/day for 3 courses of 7 days, before 4.9); 4.9 mmol/L in experiment [5] (Example 3, after Valacyclovir 1 g 3×/day for 5 courses of 7 days with 7-day intervals, before 5.6); 1.5 mmoles/1 in experiment [5] (Example 4, after combination therapy: Valacyclovir 1.0 g 3 times a day, three courses of seven days, with immunoglobulin and Laferobion, before 3.9).
`CCC(C)(C)C(=O)O[C@H]1C[C@@H](C)C=C2C=C[C@H](C)[C@H](CC[C@@H]3C[C@@H](O)CC(=O)O3)[C@H]21` [simvastatin]: the total cholesterol in experiment [5] (Example 2, patient two, after six months of simvastatin 10 mg/day (with metoprolol, enalapril, aspirin), goal indicator 5.0 mmoles/l) came out at 4.9 mmoles/1; in experiment [5] (Example 3, patient, after five months of simvastatin 10 mg/day (with metoprolol, aspirin), goal indicator 5.0 mmoles/l), 5.6 mmoles/1; in experiment [5] (Example 4, patient one, after six months of Zocor 20 mg/day (with Corvitol, Renitec, aspirin), goal indicator 4.0 mmoles/l), 3.9 mmoles/1. Besides, the triglycerides in experiment [5] (Example 2, after six months of simvastatin 10 mg/day) came out at 1.55 mmol/L; in experiment [5] (Example 3, after five months of simvastatin 10 mg/day) it was 2.55 mmol/L; in experiment [5] (Example 4, after six months of Zocor 20 mg/day) it was 1.4 mmol/L.
